Experimental data taken from publication PMC7918733, “Biological Profiling of Semisynthetic C19-Functionalized Ferruginol and Sugiol Analogues” (Antibiotics, 2021).
Read-outs that look alike come from different tables or passages of the source.

Experiments:
Macrophages J774 = conditions: cited from earlier work
HeLa (Cervix) = conditions: cited from earlier work
SW1573 (Lung) = conditions: cited from earlier work
A549 (Lung) = conditions: cited from earlier work
[1] = system: L. guyanensis promastigotes; parameters: method as in PMID 30840453; conditions: C18-congeners, cited from earlier work; for IC50: read-out: L. guyanensis IC50 ± SD
[2] = biological target: T1, GABAA receptor subtype (α1β2γ2S) (Homo sapiens, UniProt P14867+P18507+P47870); parameters: expressed in transfected cells; host or cells: Xenopus laevis oocytes; conditions: cited from earlier work
WiDr (Colon) = conditions: cited from earlier work
T-47D (Breast) = conditions: cited from earlier work
HBL-100 (Breast) = conditions: cited from earlier work
HepG2 = experiment: Cytotoxicity on mammalian cell lines; assay type: cell-based; conditions: Homo sapiens, HepG2, read-out: HepG2 EC50
Description: (§1) Assays were performed by using previously described DNA stain-based assay and methods, including cytotoxicity assays.

HEK293 = experiment: Cytotoxicity on mammalian cell lines; assay type: cell-based; conditions: Homo sapiens, HEK293, read-out: HEK293 EC50
Description: as §1

RAJI = experiment: Cytotoxicity on mammalian cell lines; assay type: cell-based; conditions: Homo sapiens, read-out: RAJI EC50
Description: as §1

BJ = experiment: Cytotoxicity on mammalian cell lines; assay type: cell-based; conditions: Homo sapiens, read-out: BJ EC50
Description: as §1

P. falciparum K1 strain = experiment: Antiplasmodial DNA stain-based growth assay; assay type: cell-based; conditions: Plasmodium falciparum, K1, 72 h, read-out: P. falciparum K1 EC50
Description: as §1

P. falciparum 3D7 strain = experiment: Antiplasmodial DNA stain-based growth assay; assay type: cell-based; conditions: Plasmodium falciparum, 3D7, 72 h, read-out: P. falciparum 3D7 EC50
Description: as §1

[3] = biological target: T1, GABAA receptor subtype (α1β2γ2S); experiment: Two-microelectrode voltage-clamp in Xenopus laevis oocytes
Description: All molecules were tested at concentrations of 10, 100 μM and compared with dehydroabietic acid (DHA) (3) as a reference [16].

[4] = system: L. infantum promastigotes; parameters: method as in PMID 30840453; conditions: C18-congeners, read-out: L. infantum IC50 ± SD; cited from earlier work
[5] = system: L. amazonensis promastigotes; parameters: method as in PMID 30840453; conditions: C18-congeners, read-out: L. amazonensis IC50 ± SD; cited from earlier work
[6] = system: L. donovani promastigotes; conditions: C18-congeners, read-out: L. donovani IC50 ± SD; cited from earlier work
[7] = read-out: Macrophages J774 CC50, C18-congeners

T1 sequence (P14867 28-456): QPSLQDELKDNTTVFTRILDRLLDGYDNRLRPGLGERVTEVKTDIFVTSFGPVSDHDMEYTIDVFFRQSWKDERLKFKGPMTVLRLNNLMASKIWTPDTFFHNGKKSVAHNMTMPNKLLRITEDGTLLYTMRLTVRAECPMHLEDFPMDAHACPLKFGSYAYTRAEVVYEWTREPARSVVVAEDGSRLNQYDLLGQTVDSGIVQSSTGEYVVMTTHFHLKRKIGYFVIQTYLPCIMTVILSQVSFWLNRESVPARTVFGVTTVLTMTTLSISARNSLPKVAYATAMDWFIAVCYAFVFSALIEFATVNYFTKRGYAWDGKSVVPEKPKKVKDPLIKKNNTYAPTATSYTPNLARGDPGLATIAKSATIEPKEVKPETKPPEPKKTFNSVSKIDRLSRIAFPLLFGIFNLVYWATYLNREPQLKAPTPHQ
T1 sequence (P47870 26-512): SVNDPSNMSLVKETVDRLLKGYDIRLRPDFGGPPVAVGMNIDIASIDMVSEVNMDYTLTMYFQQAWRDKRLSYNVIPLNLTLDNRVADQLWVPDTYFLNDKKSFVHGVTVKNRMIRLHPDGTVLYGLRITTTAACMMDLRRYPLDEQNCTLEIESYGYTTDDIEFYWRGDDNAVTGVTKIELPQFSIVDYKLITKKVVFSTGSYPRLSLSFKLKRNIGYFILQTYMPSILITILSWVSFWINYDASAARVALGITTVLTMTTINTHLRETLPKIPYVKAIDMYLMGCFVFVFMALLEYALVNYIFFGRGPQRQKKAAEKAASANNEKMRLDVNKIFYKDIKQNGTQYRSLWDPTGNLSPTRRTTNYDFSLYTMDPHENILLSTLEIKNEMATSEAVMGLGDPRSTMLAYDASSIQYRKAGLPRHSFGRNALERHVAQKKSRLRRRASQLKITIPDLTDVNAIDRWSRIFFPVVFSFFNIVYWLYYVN
T1 sequence (P18507 40-467 isoform P18507-1 limits assumed): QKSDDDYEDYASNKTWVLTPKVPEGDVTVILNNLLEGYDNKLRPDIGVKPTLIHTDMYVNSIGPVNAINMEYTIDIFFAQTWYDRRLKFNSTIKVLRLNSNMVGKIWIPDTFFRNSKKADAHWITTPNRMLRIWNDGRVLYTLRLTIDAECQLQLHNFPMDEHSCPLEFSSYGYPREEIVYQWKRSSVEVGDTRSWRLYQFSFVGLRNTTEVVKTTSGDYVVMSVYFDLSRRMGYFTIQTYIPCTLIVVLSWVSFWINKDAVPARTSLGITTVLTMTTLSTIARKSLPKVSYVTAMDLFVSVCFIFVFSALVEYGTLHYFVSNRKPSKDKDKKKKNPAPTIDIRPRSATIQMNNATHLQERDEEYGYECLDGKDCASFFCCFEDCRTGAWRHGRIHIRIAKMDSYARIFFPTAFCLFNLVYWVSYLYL

| Compound | GI50 (HeLa (Cervix); C18-congeners) | GI50 (SW1573 (Lung); C18-congeners) | GI50 (A549 (Lung); C18-congeners) | IGABA Potentiation of 10 µM (%) ([2]; C18-congeners) | IGABA Potentiation of 100 µM (%) ([2]; C18-congeners) | GI50 (WiDr (Colon); C18-congeners) | GI50 (T-47D (Breast); C18-congeners) | GI50 (HBL-100 (Breast); C18-congeners) | IC50 [4] | CC50 (Macrophages J774; [7]) | IC50 [1] | IC50 [5] | IC50 [6] | also measured |
| --- | --- | --- | --- | --- | --- | --- | --- | --- | --- | --- | --- | --- | --- | --- |
| CC(C)c1cc2c(cc1O)C1(C)CCCC(C)(C(=O)O)C1CC2=O (single isomer, unassigned; (+)) [Compound 8b, (+)-liquiditerpenoic acid A] | 85 ± 21 µM | > 100 µM | > 100 µM | −2.2 ± 4.4% | −21.1 ± 7.1% | > 100 µM | > 100 µM | > 100 µM | – | – | – | – | – | CC50 (Macrophages J774): 219 ± 15 µM; L. guyanensis IC50 ± SD [1]: inactive |
| CCN(CC)CCCC(C)Nc1ccnc2cc(Cl)ccc12 (stereo not drawn) [Chloroquine, reference compound] | – | – | – | – | – | – | – | – | – | – | – | – | – | EC50 (HepG2): > 25 µM; EC50 (HEK293): > 25 µM; EC50 (RAJI): > 25 µM; EC50 (BJ): > 25 µM; EC50 (P. falciparum K1 strain): 0.69 µM; EC50 (P. falciparum 3D7 strain): 0.023 µM |
| CC(C)c1cc2c(cc1O)[C@@]1(C)CCCC(C)(C)[C@@H]1CC2=O [Compound 2, sugiol] | – | – | – | – | – | – | – | – | – | – | – | – | – | GI50 (A549 (Lung)): 79.8 ± 2.2 µM |
| CC(C)c1ccc2c(c1)CC[C@H]1[C@](C)(C(=O)O)CCC[C@]21C [Compound 3, dehydroabietic acid, reference compound] | – | – | – | – | – | – | – | – | – | – | – | – | – | activation at 10 µM ([3]; read-out: IGABA Potentiation of 10 µM (%)): 192 ± 10%; activation at 100 µM ([3]; read-out: IGABA Potentiation of 100 µM (%)): 789 ± 82% |
| CC(C)c1ccc2c(c1)CC[C@H]1[C@@](C)(C(=O)O)CCC[C@]21C [Compound 6, callitrisic acid] | – | – | – | – | – | – | – | – | – | – | – | – | – | IGABA Potentiation of 10 µM (%) [2]: 14 ± 5%; IGABA Potentiation of 100 µM (%) [2]: 269 ± 24% |
| COC(=O)[C@@]1(C)CCC[C@]2(C)c3ccc(C(C)C)cc3CC[C@@H]12 [Compound 7, methyl callitrisate] | – | – | – | – | – | – | – | – | – | – | – | – | – | GI50 (HeLa (Cervix)): 16 ± 2.5 µM; GI50 (SW1573 (Lung)): 17 ± 2.2 µM; GI50 (A549 (Lung)): 10 ± 1.9 µM; GI50 (WiDr (Colon)): 6.4 ± 2.1 µM; GI50 (T-47D (Breast)): 8.8 ± 2.7 µM; GI50 (HBL-100 (Breast)): 14 ± 5 µM |
| COC(=O)[C@]1(C)CCC[C@]2(C)c3cc(OC(C)=O)c(C(C)C)cc3CC[C@@H]12 [Compound 10b] | 4.4 ± 1.1 µM | 12 ± 3.2 µM | 11 ± 1.8 µM | 5.1 ± 2.1% | 26.3 ± 8.9% | 16 ± 2.5 µM | 14 ± 2.9 µM | 15 ± 3.9 µM | 1.3 ± 0.1 µM | 26.5 ± 2.7 µM | 5.5 ± 0.7 µM | 3.2 ± 0.3 µM | 8.1 ± 0.7 µM | – |
| COC(=O)[C@]1(C)CCC[C@]2(C)c3cc(OC(C)=O)c(C(C)C)cc3C(=O)C[C@@H]12 [Compound 11b] | 13 ± 2.3 µM | 17 ± 1.9 µM | 14 ± 0.4 µM | −1.0 ± 2.8% | 46.7 ± 8.3% | 19 ± 1.7 µM | 20 ± 2.9 µM | 16 ± 1.5 µM | 0.7 ± 0.2 µM | 17.8 ± 2.8 µM | 1.3 ± 0.1 µM | 0.65 ± 0.03 µM | 4.4 ± 0.5 µM | – |
| COC(=O)[C@]1(C)CCC[C@]2(C)c3cc(O)c(C(C)C)cc3CC[C@@H]12 [Compound 12b] | 5.8 ± 0.5 µM | 11 ± 2 µM | 9.4 ± 2.6 µM | 23.7 ± 9.6% | 378.0 ± 65.6% | 23 ± 4.4 µM | 19 ± 3.8 µM | 9.7 ± 2.7 µM | 5 ± 0.3 µM | 34.2 ± 3.1 µM | 5.9 ± 1.1 µM | 3.9 ± 0.1 µM | 9.21 ± 0.06 µM | – |
